US11578315B2, “Truncated guinea pig L-asparaginase variants and methods of use” (THE BOARD OF TRUSTEES OF THE UNIVERSITY OF ILLINOIS, priority 2017, dated 2023)
“And” between values parts separate entries of the source, which are not always exact repeats. Equal values may be shown once.

Tests used:
[1] = system: gN-hC, chimera of guinea pig gpASNase1 N-terminal domain (residue 1-359) and human hASNase1 C-terminal domain (residue 362-573), SEQ ID NO:37; assay: L-asparaginase kinetics, NADH-dependent enzyme-coupled assay; type: biochemical; details: pH 7.5, 37° C.
Description: (§1) To build the clone hN-gC, the sequence corresponding to the N-terminal domain of hASNase1 (hN, residue 1-361) was amplified using the primers NdeI-hA_F1 and gpA360-367_R and the sequence corresponding to the C-terminal domain of gpASNase1 (gC, residue 360-565) was amplified using the primers hA354-361_F and gpA-BamHI_R565. To build the clone gN-hC the sequence corresponding to the N-terminal domain of gpASNase1 (gN, residue 1-359) was amplified using the primers NdeI-gpA_F1 and hA362-369_R and the sequence corresponding to the C-terminal domain of hASNase1 (hC, residue 362-573) was amplified using the primers gpA352-359_F and hA_BamHI_R573. The chimera was then constructed by PCR fusion of fragment hN and gC or gN and hC using the appropriate primers and then subsequently cloned into the pBAD and pET vectors.
(§2) The catalytic activity of the clones was determined using a spectroscopic NADH-dependent enzyme-coupled assay (Fernandez, et al. (2013) Int. J. Clin. Exp. Med. 6:478-487; Hejazi, et al. (2002) Biochem. J. 364:129-136), which measures the production of L-aspartic acid (Asp) through the 1:1 oxidation of reduced NADH. The conversion of NADH to NAD was measured spectrophotometrically as a decrease in absorbance at 340 nm at 37° C. All measurements were taken in triplicate in a buffer containing 100 mM Tris pH 7.5, 0.4 mM α-ketoglutarate and 0.4 mM NADH with 50 nM (hASNase1, hN-gC); 10 nM (gpASNase1, gN-hC, 63-hC, 64-hC, 65-hC, SA-hC) or 3 nM (ansB) enzyme. Glutamic-oxalacetic transaminase (Sigma) and malic dehydrogenase (Sigma) were helper enzymes for the coupled enzymatic reactions; 5 and 1 unit were used, respectively. Data were fit to the Michaelis-Menten equation using SigmaPlot (Systat Software Inc). Due to the cooperative nature of hASNase1, this enzyme was analyzed using the Hill equation.
(§3) Accordingly, two chimeras were generated; one, which was referred to as hN-gC and included the human N-terminal domain fused to the guinea pig C-terminal domain, and the second, which was referred to as gN-hC and included the guinea pig N-terminal domain fused to the human C-terminal domain (FIG. 1, Table 3). In vitro kinetic characterization of these chimeras validated the prediction, with hN-gC displaying kinetic properties similar to hASNase1 and gN-hC displaying kinetic properties similar to gpASNase1 (Table 4).

[2] = system: hN-gC, chimera of human hASNase1 N-terminal domain (residue 1-361) and guinea pig gpASNase1 C-terminal domain (residue 360-565), SEQ ID NO:38; assay: as above; type: biochemical; details: pH 7.5, 37° C.
Description: as §1, §2, §3

[3] = system: 63N-hC, shuffled hASNase1/gpASNase1 clone #63 with human C-terminal domain, SEQ ID NO:39; assay: as above; type: biochemical, human / guinea pig; details: pH 7.5, 37° C.
Protocol: as §2
(§4) Since the goal was to identify a clone with gpASNase1 kinetic properties but with the highest sequence homology to hASNase1, the four clones, #63, #64, #65 and # SA, were engineered by replacing their shuffled C-terminal domain with the exact sequence of the human C-terminal domain (FIG. 1).
(§5) For determining the precise kinetic properties of 63N-hC, 64N-hC, 65N-hC and SAN-hC, the genes encoding these enzymes were sub-cloned into a pET14b expression vector and expressed in C41 E. coli cells. The purified clones were tested for their L-asparaginase activity (Table 4). E. coli L-asparaginase ansB was also included in order to compare the clones to an L-asparaginase approved for cancer therapy. […] Importantly, the kobs@50 μM values for the humanized clones were also in this range, being 17 sec^−1, 10 sec^−1, 17 sec^−1 and 6 sec^−1 for clones 63N-hC, 64N-hC, 65N-hC and SAN-hC, respectively.

[4] = system: 65N-hC, shuffled hASNase1/gpASNase1 clone #65 with human C-terminal domain, SEQ ID NO:41; assay: as above; type: biochemical, human / guinea pig; details: pH 7.5, 37° C.
Protocol: as §2, §4, §5

[5] = system: SAN-hC, shuffled hASNase1/gpASNase1 clone #SA with human C-terminal domain, SEQ ID NO:42; assay: as above; type: biochemical, human / guinea pig; details: pH 7.5, 37° C.
Protocol: as §2, §4, §5

[6] = biological target: T1, guinea pig L-asparaginase (GpA) variant GpA369, residues 1-369, SEQ ID NO:5 (Cavia porcellus, UniProt H0W0T5); assay: L-asparaginase activity, kobs at 2 mM Asn; type: biochemical
T1 construct: GpA369; 1-369; SUMO (cleaved yes); made in house
Protocol: as §2

[7] = biological target: T2, guinea pig L-asparaginase (GpA) variant GpA369-C198A + K225C + E340C + E49C, SEQ ID NO:56 (Cavia porcellus, UniProt H0W0T5, C198A/E340C/E49C/K225C); assay: L-asparaginase activity, kobs at 2 mM Asn; type: biochemical
T2 construct: made in house
T2 sequence (H0W0T5 1-369 E49C/C198A/K225C/E340C): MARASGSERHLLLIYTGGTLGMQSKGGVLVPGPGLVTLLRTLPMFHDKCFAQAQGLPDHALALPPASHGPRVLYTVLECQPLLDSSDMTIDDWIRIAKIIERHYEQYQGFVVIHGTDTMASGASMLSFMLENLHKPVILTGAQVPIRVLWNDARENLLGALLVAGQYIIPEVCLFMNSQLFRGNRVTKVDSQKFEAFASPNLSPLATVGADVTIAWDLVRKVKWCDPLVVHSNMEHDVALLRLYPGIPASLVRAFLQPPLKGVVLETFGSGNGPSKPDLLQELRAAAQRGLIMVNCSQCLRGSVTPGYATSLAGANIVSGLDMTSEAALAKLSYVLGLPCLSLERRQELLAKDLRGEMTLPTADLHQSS
Protocol: as §2

[8] = biological target: T3, guinea pig L-asparaginase (GpA) variant GpA369-C198A + K225C + E340C, SEQ ID NO:55 (Cavia porcellus, UniProt H0W0T5, C198A/E340C/K225C); assay: L-asparaginase activity, kobs at 2 mM Asn; type: biochemical
T3 construct: made in house
T3 sequence (H0W0T5 1-369 C198A/K225C/E340C): as the sequence (H0W0T5 1-369 E49C/C198A/K225C/E340C) above, with C49E counted along it
Protocol: as §2

[9] = biological target: T4, guinea pig L-asparaginase (GpA) variant GpA369-C198A + K225C, SEQ ID NO:54 (Cavia porcellus, UniProt H0W0T5, C198A/K225C); assay: L-asparaginase activity, kobs at 2 mM Asn; type: biochemical
T4 construct: GpA369-C198A + K225C; 99.4%; 71.7%; 54; made in house
T4 sequence (H0W0T5 1-369 C198A/K225C): as the sequence (H0W0T5 1-369 E49C/C198A/K225C/E340C) above, with C49E, C340E counted along it
Protocol: as §2

[10] = biological target: T5, guinea pig L-asparaginase (GpA) variant GpA369-C198A, SEQ ID NO:51 (Cavia porcellus, UniProt H0W0T5, C198A); assay: L-asparaginase activity, kobs at 2 mM Asn; type: biochemical
T5 construct: made in house
T5 sequence (H0W0T5 1-369 C198A): as the sequence (H0W0T5 1-369 E49C/C198A/K225C/E340C) above, with C49E, C225K, C340E counted along it
Protocol: as §2

[11] = system: human L-asparaginase type I (hASNase1), SEQ ID NO:2; details: in words; Karamitros & Konrad (2014); Schalk, et al. (2014); cited from earlier work

## NC(=O)C[C@H](N)C(=O)O [Asn, L-asparagine]
[1]; 50 μM Asn
  kobs @50 μM: 14 ± 1 s⁻¹
[1]
  kcat/Km: 0.7 sec^−1μM^−1
[1]; 10 nM enzyme
  Km: 35 µM
  kcat: 24 ± 1 s⁻¹
[2]
  kcat/Km: 0.004 sec^−1μM^−1
[2]; 50 nM enzyme
  Km: 3800 ± 120 µM
  kcat: 14 ± 0.5 s⁻¹
[3]; 50 μM Asn
  kobs @50 μM: 17 s⁻¹ and 17 ± 0.5 s⁻¹
[3]
  kcat/Km: 0.7 sec^−1μM^−1
[3]; 10 nM enzyme
  Km: 47 µM
  kcat: 32 ± 0.6 s⁻¹
[4]; 50 μM Asn
  kobs @50 μM: 17 s⁻¹ and 17 ± 1 s⁻¹
[4]
  kcat/Km: 0.5 sec^−1μM^−1
[4]; 10 nM enzyme
  Km: 74 µM
  kcat: 40 ± 1 s⁻¹
[5]; 50 μM Asn
  kobs @50 μM: 6 s⁻¹ and 6 ± 1 s⁻¹
[5]
  kcat/Km: 0.2 sec^−1μM^−1
[5]; 10 nM enzyme
  Km: 165 µM
  kcat: 32 ± 2 s⁻¹
[6]
  kobs at 2 mM ASN: 44 s⁻¹
[7]
  kobs at 2 mM ASN: 41.6 s⁻¹
[8]
  kobs at 2 mM ASN: 42.4 s⁻¹
[9]
  kobs at 2 mM ASN: 41.4 s⁻¹
[10]
  kobs at 2 mM ASN: 43.3 s⁻¹
[11]
  Km for Asn: in the millimolar range
